Experimental data taken from US12304890B2, “R-type pyridyloxycarboxylic acid, salt and ester derivative thereof, and preparation method therefor, and herbicidal composition and application thereof” (Qingdao Kingagroot Chemical Compound Co., Ltd., priority 2018, dated 2025).

Experiments:
Format in all cases: in vivo
rice (japonica rice) = assay: Transplanted rice safety evaluation; conditions: transplanted 3-leaf japonica rice, 1000 g a.i./ha, 21 days after treatment
Procedure: In addition, the rice field soil that loaded into the 1/1,000,000 ha pot was leveled to keep water storage at 3-4 cm depth. The 3-leaf stage rice (japonica rice) was transplanted at 3 cm of transplanting depth the next day. The compound of the present invention was treated by the same way after 5 days of transplantation.
(§1) The fertility condition of Monochoria vaginalis 14 days and rice 21 days after the treatment of the compound of the invention with the naked eye.

Digitaria sanguinalis = assay: Post-emergence test experiment, Digitaria sanguinalis; conditions: for Activity level (growth inhibition rate), Digitaria sanguinalis: 1000 g a.i./ha, 3 weeks in greenhouse, fresh weight inhibition
Procedure, shortened: (§2)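 Pot-grown plants, sown 2 weeks earlier and at 2-3 leaves, received a foliar spray of compound in acetone/tween-80 with methyl oleate adjuvant. Effect was expressed as fresh weight inhibition rate after three further greenhouse weeks.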

[1] = system: Monocotyledonous and dicotyledonous weed seeds and main crop seeds; assay: Post-emergence test experiment, other weeds and crops (Table 4, 1000 g a.i./ha); conditions: 3 weeks in greenhouse, fresh weight inhibition
Procedure, shortened: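 Weed and crop seeds (wheat, corn, rice, soybean, cotton, oilseed, millet, sorghum) sown in soil pots in a greenhouse and sprayed at 2-3 leaf stage, 2 weeks after sowing. Compound in acetone/tween-80 with methyl oleate concentrate (1.5 L/ha) as synergist. Effect recorded as fresh-weight growth inhibition rate.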

[2] = system: Semen Euphorbiae Lathyridis; assay: Post-emergence test experiment, Semen Euphorbiae Lathyridis; conditions: 3 weeks
Procedure, shortened: as §2

Monochoria vaginalis = assay: Weed control effect evaluation in rice field; conditions: paddy pot, 0.5 leaf stage, 1000 g a.i./ha, 14 days; weed resistant to pyrazosulfuron-ethyl and penoxsulam
Procedure: Rice field soil was loaded into a 1/1,000,000 ha pot. The seeds of Monochoria vaginalis were sowed and gently covered with soil, then left to stand still in greenhouse in the state of 0.5-1 cm of water storage. It was kept at 3-4 cm of water storage thereafter. The weeds were treated by dripping the WP or SC water diluents prepared according to the common preparation method of the compounds of the present invention with pipette homogeneously to achieve specified effective amount when Monochoria vaginalis reached 0.5 leaf stage.
as §1

Echinochloa crusgalli = assay: Post-emergence test experiment, Echinochloa crusgalli; conditions: for Activity level (growth inhibition rate), Echinochloa crusgalli: 1000 g a.i./ha, 3 weeks in greenhouse, fresh weight inhibition
Procedure, shortened: as §2

rice = assay: Post-emergence test experiment, rice (crop selectivity); conditions: 3 weeks
Procedure, shortened: as §2

[3] = 200 g a.i./ha, 3 weeks, weed resistant to cyhalofop-butyl
[4] = 200 g a.i./ha, weed resistant to cyhalofop-butyl
[5] = 200 g a.i./ha, 3 weeks, weed resistant to ALS inhibitor and ACCe herbicides
[6] = 400 g a.i./ha, 3 weeks, resistant weed

Compound	rice, safety level 0-5 (rice (japonica rice))	Activity level (growth inhibition rate), Digitaria sanguinalis (Digitaria sanguinalis)	inhibition at 200 g/ha (Digitaria sanguinalis; Digitaria sanguinalis, 504 h, 200 g a.i./ha, 3 weeks, weed resistant to cyhalofop-butyl, read-out: Digitaria sanguinalis, activity level (growth inhibition rate)) [%]	Activity level (growth inhibition rate), Abutilon theophrasti Medic. [1]	Activity level (growth inhibition rate), Galium aparine [1]	Activity level (growth inhibition rate), Monochoria Vaginalis [1]	inhibition at 200 g/ha ([2]; 504 h, 200 g a.i./ha, weed resistant to cyhalofop-butyl, read-out: Semen Euphorbiae Lathyridis, activity level (growth inhibition rate)) [%]	Monochoria Vaginalis, activity level 0-5 (Monochoria vaginalis)	Activity level (growth inhibition rate), Echinochloa crusgalli (Echinochloa crusgalli)	inhibition at 200 g/ha (Echinochloa crusgalli; Echinochloa crus-galli, 504 h, 200 g a.i./ha, 3 weeks, weed resistant to ALS inhibitor and ACCe herbicides, read-out: Echinochloa crusgalli, activity level (growth inhibition rate)) [%]	rice, activity level (growth inhibition rate) (rice; 200 g a.i./ha)	Digitaria sanguinalis, activity level (growth inhibition rate) (Digitaria sanguinalis; [3])	Semen Euphorbiae Lathyridis, activity level (growth inhibition rate) [2, 4]	Echinochloa crusgalli, activity level (growth inhibition rate) (Echinochloa crusgalli; [5])	Digitaria sanguinalis, activity level (growth inhibition rate) (Digitaria sanguinalis; [6])	Semen Euphorbiae Lathyridis, activity level (growth inhibition rate) ([2]; 400 g a.i./ha, resistant weed)	Echinochloa crusgalli, activity level (growth inhibition rate) (Echinochloa crusgalli; [6])	rice, activity level (growth inhibition rate) (rice; 400 g a.i./ha)
C[C@@H](Oc1nc(F)c(Cl)c(N)c1Cl)C(=O)SCc1ccc(Cl)cc1 [Compound 2-319]	0 (Level 0: the growth inhibition rate is less than 5%)	5 (Level 5: the growth inhibition rate is greater than 85%)	> 85	5 (Level 5: the growth inhibition rate is greater than 85%)	5 (Level 5: the growth inhibition rate is greater than 85%)	5 (Level 5: the growth inhibition rate is greater than 85%)	> 85	5 (Level 5: the growth inhibition rate is greater than 85%)	5 (Level 5: the growth inhibition rate is greater than 85%)	> 85	0 (Level 0: the growth inhibition rate is less than 5%)							
C[C@@H](Oc1nc(F)c(Cl)c(N)c1Cl)C(=O)SCc1ccccn1 [Compound 2-343]	0 (Level 0: the growth inhibition rate is less than 5%)	5 (Level 5: the growth inhibition rate is greater than 85%)		5 (Level 5: the growth inhibition rate is greater than 85%)	5 (Level 5: the growth inhibition rate is greater than 85%)	5 (Level 5: the growth inhibition rate is greater than 85%)		5 (Level 5: the growth inhibition rate is greater than 85%)	5 (Level 5: the growth inhibition rate is greater than 85%)		0 (Level 0: the growth inhibition rate is less than 5%)	5 (Level 5: the growth inhibition rate is greater than 85%)	5 (Level 5: the growth inhibition rate is greater than 85%)	5 (Level 5: the growth inhibition rate is greater than 85%)				
C[C@@H](Oc1nc(F)c(Cl)c(N)c1Cl)C(=O)OCc1ccco1 [Compound 2-348]	0 (Level 0: the growth inhibition rate is less than 5%)	5 (Level 5: the growth inhibition rate is greater than 85%)		5 (Level 5: the growth inhibition rate is greater than 85%)	5 (Level 5: the growth inhibition rate is greater than 85%)	5 (Level 5: the growth inhibition rate is greater than 85%)		5 (Level 5: the growth inhibition rate is greater than 85%)	5 (Level 5: the growth inhibition rate is greater than 85%)		0 (Level 0: the growth inhibition rate is less than 5%)	5 (Level 5: the growth inhibition rate is greater than 85%)	5 (Level 5: the growth inhibition rate is greater than 85%)	5 (Level 5: the growth inhibition rate is greater than 85%)				
CCOC(=O)[C@@H](C)Oc1nc(F)c(Cl)c(N)c1Cl [Compound 2-71]	0 (Level 0: the growth inhibition rate is less than 5%)	5 (Level 5: the growth inhibition rate is greater than 85%)		5 (Level 5: the growth inhibition rate is greater than 85%)	5 (Level 5: the growth inhibition rate is greater than 85%)	5 (Level 5: the growth inhibition rate is greater than 85%)		5 (Level 5: the growth inhibition rate is greater than 85%)	5 (Level 5: the growth inhibition rate is greater than 85%)		0 (Level 0: the growth inhibition rate is less than 5%)	5 (Level 5: the growth inhibition rate is greater than 85%)	5 (Level 5: the growth inhibition rate is greater than 85%)	5 (Level 5: the growth inhibition rate is greater than 85%)	5 (Level 5: the growth inhibition rate is greater than 85%)	5 (Level 5: the growth inhibition rate is greater than 85%)	5 (Level 5: the growth inhibition rate is greater than 85%)	2 (Level 2: the growth inhibition rate is equal to or greater than 20% and less than 40%)
